Results reported in patent US10543195B2, “Peptides for skin rejuvenation and methods of using the same” (Anteis SA, priority 2013, dated 2020).
* marks the point of attachment. Palmitoyl = CCCCCCCCCCCCCCCC(=O)*

What was measured:
human skin explants = details: 3H-proline-incorporation; cited from earlier work
hyaluronic acid [1] = assay: Hyaluronic acid ELISA in culture supernatant of NHDF; assay type: cell-based, human; details: 72 h
From the text: For the interpretation of the data related to the stimulation of the formation of extracellular matrix components as determined during the in vitro experiments, a “significant” stimulation of the formation of extracellular matrix components means a stimulation of at least 20% more than measured using a control material under identical experimental conditions. The control material is the identical material (here: assay medium) as used when testing the active (here: peptide(s)) but without the active(s).
Normal human dermal fibroblasts (NHDF); used at the 8th passage, were cultured in culture medium (DMEM supplemented with 10% fetal calf serum, 2 mM L-glutamine, 50 U/ml penicillin, and 50 μg/ml streptomycin) in 96-well plates for 24 h at 37° C. and 5% CO2.
Afterwards, the culture medium was removed and replaced by assay medium (DMEM culture medium supplemented with 2% fetal calf serum, 2 mM L-glutamine, 50 U/ml penicillin, and 50 μg/ml streptomycin) containing the test peptides or not (control). The cells were then incubated for 72 h. All experimental conditions were performed 3-times (n=3). At the end of the incubation, culture supernatants were collected and immediately frozen at about −80° C.
Hyaluronic acid was quantified in the culture supernatant using the Duoset Hylaluronan ELISA kit (R&D Systems Ref. DY3614, 0.37 ng/ml as low detection limit) according to the provider's specifications.
This evaluation was realized with non-cytotoxic concentrations of the test peptides. Cytotoxicity of the test peptides in the assay medium was previously determined in NHDF by the MTT reduction assay and morphological observations with help of microscope after a 72 h incubation time.

collagen III (alpha 1) = assay: RT-qPCR gene expression in NHDF: collagen III (alpha 1); assay type: cell-based, human; details: 24 h, vs control; for stimulation of formation of collagen III (alpha 1) (mRNA, RT-qPCR): 300 ppm (0.03%)
Description: (§1) Normal human dermal fibroblasts (NHDF); used at the 8th passage, were cultured in culture medium (DMEM supplemented with 10% fetal calf serum, 2 mM L-glutamine, 50 U/ml penicillin, and 50 μg/ml streptomycin) in 24-well plates for 48 h at 37° C. and 5% CO2 with a renewal of culture medium after 24 h. The culture medium was then removed, replaced by assay medium (DMEM culture medium supplemented with 1% fetal calf serum, 2 mM L-glutamine, 50 U/ml penicillin, and 50 μg/ml streptomycin) and the cells were further incubated for 24 h. The cells were then treated with the test peptides, or not (control), or with the reference TGF-beta 1 and incubated for 24 h. All experimental conditions were performed 4-times (n=4). At the end of the incubation, the cells were washed in PBS solution and immediately frozen at about −80° C. The expression of the markers was analyzed using quantitative real time polymerase chain reaction (RT-qPCR) method on mRNA extracted from the cell monolayers for each treatment; whereby the replicates were pooled before RNA extraction. Analysis of gene expression was performed in duplicate (n=2) using a PCR array. Total RNA was extracted from each sample using TriPure Isolation Reagent® according to the supplier's instructions. The amount and quality of RNA were evaluated using a lab-on-a-chip Bioanalyzer (Agilent Technologies). […] Quantification of cDNA was performed using Nanovue (GE Healthcare) and cDNA was adjusted. […]
(§2) The incorporation of the fluorescence in amplified DNA was continuously measured during the PCR cycles. […] The value selected for RE calculations is the “output point” (Ct) of the fluorescence curve. For a considered marker, the highest is the cycle number; the lowest is the mRNA quantity. […]
(§3) This evaluation was realized with non-cytotoxic concentrations of the test peptides. Cytotoxicity of the test peptides in the assay medium was previously determined in NHDF by the MTT reduction assay and morphological observations with help of microscope after a 24 h incubation time. […]

collagen I (alpha 1) = assay: RT-qPCR gene expression in NHDF: collagen I (alpha 1); assay type: cell-based, human; details: 24 h, vs control; for stimulation of formation of collagen I (alpha 1) (mRNA, RT-qPCR): 300 ppm (0.03%)
Description: as §1, §2, §3

collagen III = details: immunofluorescence, normal human dermal fibroblasts; cited from earlier work
collagen I = details: ELISA, normal human dermal fibroblasts; cited from earlier work
rat experimental wounds = details: cited from earlier work
collagen XVI (alpha 1) = assay: RT-qPCR gene expression in NHDF: collagen XVI (alpha 1); assay type: cell-based, human; details: 300 ppm (0.03%), 24 h, vs control
Description: as §1, with “All experimental conditions were performed 4-times (n=4). At the end of the incubation, the cells were washed in PBS solution and immediately frozen at about −80° C.” left out, “Analysis of gene expression was performed in duplicate (n=2) using a PCR array. Total RNA was extracted from each sample using TriPure Isolation Reagent® according to the supplier's instructions.” left out
as §2

[2] = tested on: heparan sulfate protoglycan 2; assay: RT-qPCR gene expression in NHDF: heparan sulfate protoglycan 2; assay type: cell-based, human; details: 300 ppm (0.03%), 24 h, vs control
Description: as §1, with “All experimental conditions were performed 4-times (n=4). At the end of the incubation, the cells were washed in PBS solution and immediately frozen at about −80° C.” left out, “Analysis of gene expression was performed in duplicate (n=2) using a PCR array. Total RNA was extracted from each sample using TriPure Isolation Reagent® according to the supplier's instructions.” left out
as §2

collagen VII (alpha 1) = assay: RT-qPCR gene expression in NHDF: collagen VII (alpha 1); assay type: cell-based, human; details: 300 ppm (0.03%), 24 h, vs control
Description: as §1, with “All experimental conditions were performed 4-times (n=4). At the end of the incubation, the cells were washed in PBS solution and immediately frozen at about −80° C.” left out, “Analysis of gene expression was performed in duplicate (n=2) using a PCR array. Total RNA was extracted from each sample using TriPure Isolation Reagent® according to the supplier's instructions.” left out
as §2

collagen V (alpha 1) = assay: RT-qPCR gene expression in NHDF: collagen V (alpha 1); assay type: cell-based, human; details: 300 ppm (0.03%), 24 h, vs control
Description: as §1, with “All experimental conditions were performed 4-times (n=4). At the end of the incubation, the cells were washed in PBS solution and immediately frozen at about −80° C.” left out, “Analysis of gene expression was performed in duplicate (n=2) using a PCR array. Total RNA was extracted from each sample using TriPure Isolation Reagent® according to the supplier's instructions.” left out
as §2

collagen VI (alpha 1) = assay: RT-qPCR gene expression in NHDF: collagen VI (alpha 1); assay type: cell-based, human; details: 300 ppm (0.03%), 24 h, vs control
Description: as §1, with “All experimental conditions were performed 4-times (n=4). At the end of the incubation, the cells were washed in PBS solution and immediately frozen at about −80° C.” left out, “Analysis of gene expression was performed in duplicate (n=2) using a PCR array. Total RNA was extracted from each sample using TriPure Isolation Reagent® according to the supplier's instructions.” left out
as §2

laminin (alpha 4) = assay: RT-qPCR gene expression in NHDF: laminin (alpha 4); assay type: cell-based, human; details: 300 ppm (0.03%), 24 h, vs control
Description: as §1, with “All experimental conditions were performed 4-times (n=4). At the end of the incubation, the cells were washed in PBS solution and immediately frozen at about −80° C.” left out, “Analysis of gene expression was performed in duplicate (n=2) using a PCR array. Total RNA was extracted from each sample using TriPure Isolation Reagent® according to the supplier's instructions.” left out
as §2

hyaluronan synthase 2 = assay: RT-qPCR gene expression in NHDF: hyaluronan synthase 2; assay type: cell-based, human; details: 300 ppm (0.03%), 24 h, vs control
Description: as §1, with “All experimental conditions were performed 4-times (n=4). At the end of the incubation, the cells were washed in PBS solution and immediately frozen at about −80° C.” left out, “Analysis of gene expression was performed in duplicate (n=2) using a PCR array. Total RNA was extracted from each sample using TriPure Isolation Reagent® according to the supplier's instructions.” left out
as §2

elastin = assay: RT-qPCR gene expression in NHDF: elastin; assay type: cell-based, human; details: 300 ppm (0.03%), 24 h, vs control
Description: as §1, with “All experimental conditions were performed 4-times (n=4). At the end of the incubation, the cells were washed in PBS solution and immediately frozen at about −80° C.” left out, “Analysis of gene expression was performed in duplicate (n=2) using a PCR array. Total RNA was extracted from each sample using TriPure Isolation Reagent® according to the supplier's instructions.” left out
as §2

fibrillin 1 = assay: RT-qPCR gene expression in NHDF: fibrillin 1; assay type: cell-based, human; details: 300 ppm (0.03%), 24 h, vs control
Description: as §1, with “All experimental conditions were performed 4-times (n=4). At the end of the incubation, the cells were washed in PBS solution and immediately frozen at about −80° C.” left out, “Analysis of gene expression was performed in duplicate (n=2) using a PCR array. Total RNA was extracted from each sample using TriPure Isolation Reagent® according to the supplier's instructions.” left out
as §2

hyaluronic acid [3] = details: oil-in-water vehicle containing 50 ppm GEKG for sixty days; cited from earlier work

In the case of “Palmitoyl-Gly-His-Lys-OH [Palmitoyl-GHK]”, the “increase of collagen synthesis” value (human skin explants) is listed as “up to 75.3%” and the “stimulation of synthesis of hyaluronic acid” value (hyaluronic acid [1]; alone at 10 or 30 ppm) is listed as “up to 11%”.
In the case of `NCCC(=O)N[C@@H](Cc1cnc[nH]1)C(=O)O` [beta-alanyl-histidine], the “stimulation of formation of collagen III (alpha 1) (mRNA, RT-qPCR)” value (collagen III (alpha 1)) is reported as 24% and the “stimulation of formation of collagen I (alpha 1) (mRNA, RT-qPCR)” value (collagen I (alpha 1)) is reported as 28%.
In the case of palmitoyl-KMO2K—OH, the “increase of collagen III formation” value (collagen III) is listed as 104% and the “increase of collagen I formation” value (collagen I) is listed as 111%.
For Gly-His-Lys [GHK], the collagen accumulation (rat experimental wounds) is listed as “no effect”.
In the case of GHK-Cu, the collagen accumulation (rat experimental wounds) is listed as “statistical significant increase of collagen accumulation”.
With `CCCCCCCC(=O)NCCC(=O)NC(Cc1cnc[nH]1)C(=O)O` (stereo not drawn) [Octanoyl Carnosine, Octanoyl-beta-Ala-His-OH] the “stimulation of formation of collagen III (alpha 1) (mRNA, RT-qPCR)” value (collagen III (alpha 1)) was 120%, the “stimulation of formation of collagen XVI (alpha 1) (mRNA, RT-qPCR)” value (collagen XVI (alpha 1)) was 91% and the “stimulation of formation of heparan sulfate protoglycan 2 (mRNA, RT-qPCR)” value [2] was 79%. For the same molecule, the “stimulation of formation of collagen VII (alpha 1) (mRNA, RT-qPCR)” value (collagen VII (alpha 1)) was 97%, the “stimulation of formation of collagen V (alpha 1) (mRNA, RT-qPCR)” value (collagen V (alpha 1)) was 35% and the “stimulation of formation of collagen VI (alpha 1) (mRNA, RT-qPCR)” value (collagen VI (alpha 1)) was 46%. The “stimulation of formation of laminin (alpha 4) (mRNA, RT-qPCR)” value (laminin (alpha 4)) was 20%, the “stimulation of formation of collagen I (alpha 1) (mRNA, RT-qPCR)” value (collagen I (alpha 1)) was 38% and the “stimulation of synthesis of hyaluronic acid” value (hyaluronic acid [1]; alone at 100 pm) was −5%. The “stimulation of formation of hyaluronan synthase 2 (mRNA, RT-qPCR)” value (hyaluronan synthase 2) was 23%, the “stimulation of formation of elastin (mRNA, RT-qPCR)” value (elastin) was 51% and the “stimulation of formation of fibrillin 1 (mRNA, RT-qPCR)” value (fibrillin 1) was 23%.
In the case of NH2-Gly-Glu-Lys-Gly-OH (H-GEKG-OH), the hyaluronic acid formation (hyaluronic acid [3]) is listed as “stimulate hyaluronic acid formation” and the “stimulation of synthesis of hyaluronic acid” value (hyaluronic acid [1]; alone at 100 or 300 ppm) is listed as “up to 25%”.
For “TGF-beta 1: reference TGF-beta 1 (10 ng/ml) in the gene expression test”, the “stimulation of formation of collagen III (mRNA, RT-qPCR)” value (collagen III (alpha 1); 10 ng/ml) was 164% and the “stimulation of formation of collagen I (mRNA, RT-qPCR)” value (collagen I (alpha 1); 10 ng/ml) was 245%.
